# From publication PMC12156997, “Dihydromyricetin May Attenuate Skin Aging as a RAGE Inhibitor” (Nutrients, 2025)
# How the values were obtained:
# [1] = target: T1, RAGE (receptor for advanced glycation end products) (Homo sapiens, UniProt Q15109); assay: SPR (Biacore 1S+, CM5 chip, RAGE immobilized, multi-cycle kinetics); known RAGE inhibitor as reference; type: binding
# T1 construct: gene AGER
# [2] = target: T1, RAGE (receptor for advanced glycation end products); assay: SPR (Biacore 1S+, CM5 chip, RAGE immobilized, multi-cycle kinetics); type: binding
# T1 sequence (Q15109 23-344): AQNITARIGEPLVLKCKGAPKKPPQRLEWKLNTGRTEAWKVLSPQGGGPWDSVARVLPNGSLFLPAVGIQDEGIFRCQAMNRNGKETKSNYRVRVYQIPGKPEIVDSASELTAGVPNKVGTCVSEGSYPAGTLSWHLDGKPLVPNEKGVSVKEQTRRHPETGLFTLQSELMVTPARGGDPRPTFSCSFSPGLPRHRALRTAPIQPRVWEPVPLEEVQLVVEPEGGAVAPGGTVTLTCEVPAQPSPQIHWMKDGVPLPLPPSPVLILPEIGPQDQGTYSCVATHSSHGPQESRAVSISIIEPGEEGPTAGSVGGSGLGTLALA
Kd [1],SMILES,Kd [2]
40.7 µM,O=C(c1ccc(Cl)cc1)N(Cc1ccccc1)C1CCCCC1 [FPS-ZM1],–
–,"O=C1c2c(O)cc(O)cc2O[C@H](c2cc(O)c(O)c(O)c2)[C@H]1O [DHM, Dihydromyricetin]",28.7 µM
